Where a name gives a salt, the structure may show the parent alone.
What was measured:
sleep/wake and cataplexy = assay type: in vivo, male DTA mice; conditions: amphetamine 2 mg/kg i.p.
anxiety-like behavior = experiment: Elevated plus maze (EPM); assay type: in vivo, male Wistar rats; conditions: for Closed arm entries / Closed arm returns / Head dips in open arms / Stretch-attend postures / Time in closed arms / Time in open arms / Total arm entries / % Time in open arms / Open Arm Entries / Total distance travelled: 0.5 mg/kg i.p. 30 min before testing; for Closed arm entries / Closed arm returns / Head dips in open arms / Stretch-attend postures / Time in closed arms / Time in open arms / Total arm entries: mean; for % Time in open arms / Open Arm Entries / Total distance travelled: mean ± S.E.M.
behavioral signature = experiment: SmartCube phenotypic screening (class/subclass and DRFA similarity analysis); assay type: in vivo, male C57/B16 mice
Description: A study was conducted to evaluate the CNS-like efficacy of novel test compounds using the SmartCube® System.
Animals. Male C57/B16 mice from Taconic Laboratories (Germantown, NY) were used. Upon receipt, mice were group-housed in OPTIMice® ventilated cages with 4 mice per cage. Mice were acclimated to the colony room for at least one week prior to test, and subsequently tested at approximately 8-9 weeks of age. All animals were examined, handled, and weighed prior to initiation of the study to assure adequate health and suitability and to minimize nonspecific stress associated with manipulation. During the course of the study, 12/12 light/dark cycles were maintained. The room temperature was 20-23° C. with a relative humidity maintained between 30-70%. Chow and water were provided ad libitum for the duration of the study.
Test compounds. All compounds were administered orally at a dose volume of 10 mL/kg, 20 minutes prior to testing. Formulations were prepared fresh on day of testing and dosing was completed within one hour of formulation. Compounds were prepared according to the table below. Twelve mice were used in each treatment group:
SmartCube®. The SmartCube® system is designed to and can successfully measure numerous spontaneous behaviors and response to challenges in the same testing environment. The hardware includes force sensors and a number of aversive stimuli to elicit behavior. Three high-resolution video cameras provide constant 3D view of the mouse in the SmartCube® apparatus (SC) throughout the entire testing period. During the 45-minute test session the mice are exposed to a sequence of challenges. The cubes are cleaned between each run.
Digital videos of the subjects were processed through computer segmentation algorithms to fit geometrical models to each mouse frame image. The resulting fitted parameters were then analyzed using behavioral classifier algorithms to extract behavioral states, such as rearing, locomotion, and immobility. The data obtained in this way was used to define a drug signature for PGI's known reference compounds and establish a therapeutic class signature against which a test sample can be compared.
The data mining effort utilizes several analytical methods including Bayesian probabilistic density models and Decision trees. The algorithms consider ˜2,600 measures including frequency and duration of behavioral states such as grooming, rearing, etc., and many other features obtained during the test session.
Two major types of analyses are routinely conducted: Class and subclass.
Each reference drug was tested at multiple doses appropriate for that drug in mice.
Multiple analyses of the data were performed to quantitatively produce independent predictions of drug class, and drug subclass. The behavioral signatures of the test drugs were evaluated using these classifiers to predict potential therapeutic utility.
The results for the class and subclass analyses are presented as standardized bar charts with percentages that sum to 100 for each dose.
Similarity Analysis Using “Clouds Framework”. The outcome from SmartCube® is a large set of features (behavioral parameters) that can be used for various analyses. […] Therefore, we formed statistically independent combinations of the original features (further referred to as de-correlated features). Each de-correlated feature extracted information from the whole cluster of the original features, so the new feature space would have lower dimensionality. Next, we applied a proprietary feature ranking algorithm to score each feature for its discrimination power (ability to separate the two groups, e.g. vehicle from treatment). Ranking is an important part of our analyses because it weighs each feature change by its relevance. We applied a feature ranking algorithm, derived from support vector in the support vector machine learning method, to rank each feature.

prepulse inhibition = experiment: Prepulse inhibition (PPI) of the auditory startle response, apomorphine-impairment model; conditions: for % PPI (mean ± SEM): averaged across prepulse levels
Description: Four standard startle chambers (San Diego Instruments, San Diego, CA) were used. […] The tube is mounted on a plastic frame, under which a piezoelectric accelerometer is mounted, which records and transduces the motion of the tube. Three days before drug testing the experimental subjects were each placed in one of the startle test chambers for a period of 10 minutes (without any startle stimuli) as an initial period of acclimation to the apparatus. Two days before drug testing the animals were again placed in the test chamber and then exposed to 12 startle stimuli and to each prepulse level 3 times (see below). This procedure was done to reduce the highly variable responses to the initial exposures to the startle stimuli as well as to ensure that the prepulse stimuli (alone) had no significant effect on the startle response. One day before drug testing, a full 60 trial PPI test session (as subsequently described for the drug testing experiments, see below) was conducted for all experimental subjects.
On the day of drug testing the rats were transported to the startle chamber room and left undisturbed for at least 30 min. […] After this period, the rats received 12 startle trials, 12 no-stimulus trials, and 12 trials of each of the prepulse/startle trials (see below) for a total of 60 trials. The intertrial interval ranged from 10 to 30 s, and the total session lasted about 25-30 min. The startle trials consisted of single 120 dB white noise bursts lasting 20 ms.
The prepulse inhibition trials consisted of a prepulse (20 ms burst of white noise with intensities of 75, 80, or 85 dB) followed, 100 ms later, by a startle stimulus (120 dB, 20 ms white noise). During the no-stimulus trial, no startle noise was presented, but the movement of the rat was recorded. This represented a control trial for detecting differences in overall activity. The 60 different trials were presented pseudo-randomly, ensuring that each trial was presented 12 times and that no two consecutive trials were identical. The resulting movement of the rat in the startle chamber was measured during 100 ms after startle stimulus onset (sampling frequency 1 kHz), rectified, amplified, and fed into a computer that determined the maximal response that occurred during the 100-ms period. Basal startle amplitude was determined as the mean amplitude of the 12 startle trials. Prepulse inhibition was calculated according to the formula 100−100%×(PPx/P120), in which PPx is the mean of the 12 prepulse inhibition trials (i.e., for each individual prepulse level), and p120 is the basal startle amplitude. The average level of PPI was also calculated (average of the responses to pp75, pp80, or pp85) and analyzed separately.

[1] = DRFA dose by dose, maximum (COMPOUND A: 90 and 120 mg/kg)
[2] = vehicle + apomorphine 0.5 mg/kg s.c.
[3] = haloperidol 0.3 mg/kg + apomorphine

C[C@H](N)Cc1ccccc1 [Amphetamine, d-Amphetamine sulfate, reference compound]
LMA (sleep/wake and cataplexy): overall increase in LMA | Levels of C (sleep/wake and cataplexy): generally unaffected | W and NREM time (sleep/wake and cataplexy): increased W and decreased NREM | latency to sleep onset (sleep/wake and cataplexy): increased latency to the onset of both NREM and REM sleep

Cc1ncc2n1-c1ccc(Cl)cc1C(c1ccccc1F)=NC2 [midazolam]
Closed arm entries (anxiety-like behavior; Study 1): 14.13 | Closed arm returns (anxiety-like behavior; Study 1): 1.38 | Head dips in open arms (anxiety-like behavior; Study 1): 7.00 | Stretch-attend postures (anxiety-like behavior; Study 1): 18.88 | Time in closed arms (anxiety-like behavior; Study 1): 247.54 s | Time in open arms (anxiety-like behavior; Study 1): 18.47 s | Total arm entries (anxiety-like behavior; Study 1): 16.75 | % Time in open arms (anxiety-like behavior; Study 1): 6.16 ± 1.96 % | Open Arm Entries (anxiety-like behavior; Study 1): 2.63 ± 0.78 | Total distance travelled (anxiety-like behavior; Study 1): 2064.55 ± 111.02 cm | Closed arm entries (anxiety-like behavior; Study 2): 13.89 | Closed arm returns (anxiety-like behavior; Study 2): 1.44 | Head dips in open arms (anxiety-like behavior; Study 2): 5.67 | Stretch-attend postures (anxiety-like behavior; Study 2): 20.33 | Time in closed arms (anxiety-like behavior; Study 2): 259.11 s | Time in open arms (anxiety-like behavior; Study 2): 18.38 s | Total arm entries (anxiety-like behavior; Study 2): 16.22 | % Time in open arms (anxiety-like behavior; Study 2): 6.13 ± 1.80 % | Open Arm Entries (anxiety-like behavior; Study 2): 2.33 ± 0.60 | Total distance travelled (anxiety-like behavior; Study 2): 2052.96 ± 791.05 cm | anxiolytic activity (anxiety-like behavior; midazolam 0.5 mg/kg i.p., both studies): exhibited anxiolytic activity

CCOc1ccccc1OCC1CNCCO1 (racemic) [Viloxazine, (R,S)-2-[(2-ethoxyphenoxy)methyl]morpholine, reference compound]
behavioral activity (class/subclass analysis) (behavioral signature; 15 mg/kg PO): low behavioral activity | behavioral activity (class/subclass analysis) (behavioral signature; 30 mg/kg PO): moderate activity | behavioral activity (class/subclass analysis) (behavioral signature; 60 and 90 mg/kg PO): high activity | proximity to donepezil (behavioral signature; [1]): around 100% | proximity to thioperamide (behavioral signature; [1]): around 100% | proximity to memantine (behavioral signature; DRFA dose by dose, maximum reached): 57%

CN1CCc2cccc3c2[C@H]1Cc1ccc(O)c(O)c1-3 [APO, apomorphine, reference compound]
effect on PPI compared to vehicle (prepulse inhibition; apomorphine 0.5 mg/kg s.c., all three prepulse levels): significantly (p<0.05) diminished PPI | Acoustic Startle (AU) (mean ± SEM) (prepulse inhibition; [2]): 1546.1 ± 260.5 AU | % PPI (mean ± SEM) (prepulse inhibition; [2]): 33.4 ± 5.5 %

O=C(CCCN1CCC(O)(c2ccc(Cl)cc2)CC1)c1ccc(F)cc1 [HAL, haloperidol, reference compound]
Acoustic Startle (AU) (mean ± SEM) (prepulse inhibition; [3]): 1774.3 ± 770.6 AU | % PPI (mean ± SEM) (prepulse inhibition; [3]): 55.2 ± 6.3 ^+ % | effect on apomorphine-induced PPI deficit (prepulse inhibition; haloperidol 0.3 mg/kg, 75, 80 and 85 dB prepulse levels): significantly antagonized the effects of apomorphine on PPI
